Measured values taken from patent US20060069132A1, “Azolecarboxamide herbicides” (priority 2004, published 2006).

Columns and labels:
lambsquarters = test: Test B pre-/postemergence herbicide test; format: in vivo, Chenopodium album; details: for Lambsquarters plant response rating: postemergence
Outline: (§1)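 Formulation: non-phytotoxic solvent mix with surfactant. Timing: preemergence on seed and postemergence on 2–18 cm plants, applied concurrently. Readout after 13–15 d greenhouse: visual 0–100 control rating against controls.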

barnyardgrass [1] = test: Test C flooded paddy test; format: in vivo, Echinochloa crus-galli
Outline: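 After a postemergence application at 1 to 4 leaves (plants 2–18 cm high), or at 2 leaves for barnyardgrass in flooded paddy, plants stayed in the greenhouse for 12 to 14 days. Damage was then judged visually relative to control plants, with 100 indicating complete control.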

rice [2] = test: Test B flooded paddy test; format: in vivo, Oryza sativa; details: 1000 g ai/ha, scale 0 to 100 (0 no effect, 100 complete control)
Outline: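 Scale 0–100: zero equals no visible effect, 100 complete control, judged by eye relative to controls. Timing: 13 to 15 days in greenhouse post-treatment. Growth stage at spraying: two leaves (paddy) or one to four leaves, 2–18 cm (postemergence).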

giant foxtail = test: Test B pre-/postemergence herbicide test; format: in vivo, Setaria faberi; details: for Foxtail, Giant plant response rating: postemergence
Outline: as §1

barnyardgrass [3] = test: Test B flooded paddy test; format: in vivo, Echinochloa crus-galli; details: 1000 g ai/ha, scale 0 to 100 (0 no effect, 100 complete control)
Outline: (§2)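 Formulated test chemicals went onto postemergence plants measuring 2 to 18 cm, at one to four leaves. For the paddy assay, species had reached two leaves. Scoring took place 13–15 days later by eye, relative to untreated plants, using 0 for no effect up to 100 for full control.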

[4] = system: small flower umbrella sedge; test: Test B flooded paddy test; format: in vivo, Cyperus difformis; details: 1000 g ai/ha, scale 0 to 100 (0 no effect, 100 complete control)
Outline: as §2

wheat = test: Test B postemergence herbicide test; format: in vivo, Triticum aestivum; set-up: key to Wheat plant response rating: 0 = no effect, 100 = complete control; details: postemergence
Outline: (§3)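 Treated at 2-leaf (paddy) or 1–4-leaf, 2–18 cm (postemergence); greenhouse 13–15 d; visual score vs control, 0 none to 100 complete control; dash = not tested.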

large crabgrass = test: Test B pre-/postemergence herbicide test; format: in vivo, Digitaria sanguinalis; details: for Crabgrass, Large plant response rating: postemergence
Outline: as §1

[5] = system: smallflower umbrella sedge; test: Test C flooded paddy test; format: in vivo, Cyperus difformis
velvetleaf = test: Test B pre-/postemergence herbicide test; format: in vivo, Abutilon theophrasti; details: for Velvetleaf plant response rating: postemergence
Outline: as §1

rice [6] = test: Test B pre-/postemergence herbicide test; format: in vivo, Oryza sativa; details: 0 = no effect, 100 = complete control, preemergence
Outline: as §1

morningglory = test: Test B pre-/postemergence herbicide test; format: in vivo, Ipomoea coccinea; details: for Morningglory plant response rating: postemergence
Outline: (§4)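 Plants compared with untreated controls 13–15 days post-treatment and given a visual 0–100 injury score. Applications: preemergence to seeds; postemergence at 1- to 4-leaf (2–18 cm); paddy species flooded, 2-leaf stage. Vehicle non-phytotoxic, surfactant included.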

rice [7] = test: Test C flooded paddy test; format: in vivo, Oryza sativa
Outline: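 Injury scored visually against controls on a 0 (no effect) to 100 (complete control) scale, 12 to 14 days after treatment in greenhouse. Flooded paddy plants treated at 2-leaf stage; postemergence plants at 1- to 4-leaf stage, 2 to 18 cm tall.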

blackgrass = test: Test B postemergence herbicide test; format: in vivo, Alopecurus myosuroides; details: postemergence, visual rating, scale 0 (no effect) to 100 (complete control)
Outline: as §2

corn = test: Test B pre-/postemergence herbicide test; format: in vivo, Zea mays; details: for Corn plant response rating: postemergence
Outline: as §1

ducksalad [8] = test: Test C flooded paddy test; format: in vivo, Heteranthera limosa
wild oat = test: Test B postemergence herbicide test; format: in vivo, Avena fatua; details: postemergence
Outline: as §3

Surinam grass = test: Test B pre-/postemergence herbicide test; format: in vivo, Urochloa decumbens; details: for Surinam Grass plant response rating: postemergence
Outline: as §1

barnyardgrass [9] = test: Test B pre-/postemergence herbicide test; format: in vivo, Echinochloa crus-galli; details: for Barnyardgrass plant response rating: postemergence, scale 0 (no effect) to 100 (complete control)
Outline: as §4

pigweed = test: Test B pre-/postemergence herbicide test; format: in vivo, Amaranthus retroflexus; details: for Pigweed plant response rating: postemergence
Outline: as §1

cocklebur = test: Test B pre-/postemergence herbicide test; format: in vivo, Xanthium strumarium; details: for Cocklebur plant response rating: postemergence, scale 0 (no effect) to 100 (complete control)
Outline: as §4

ducksalad [10] = test: Test B flooded paddy test; format: in vivo, Heteranthera limosa; details: 1000 g ai/ha, scale 0 to 100 (0 no effect, 100 complete control)
Outline: as §2

[11] = 125 g ai/ha, 0 = no effect, 100 = complete control, preemergence
[12] = 125 g ai/ha, visual rating, scale 0 (no effect) to 100 (complete control)
[13] = 500 g ai/ha, scale 0 to 100, 0 is no effect, 100 is complete control
[14] = 125 g ai/ha, scale 0 to 100 (0 no effect, 100 complete control)
[15] = 250 g ai/ha, scale of 0 to 100, 0 is no effect, 100 is complete control
[16] = 500 g ai/ha, visual rating after 12 to 14 days, scale 0 to 100 (0 no effect, 100 complete control)
[17] = 500 g ai/ha, visual rating, 0 = no effect, 100 = complete control, preemergence

CCNC(=O)c1cncc(NC(=O)c2cc(C(C)(C)C)nn2CC)c1 [Compound 259]
10: Lambsquarters plant response rating (lambsquarters; [12]) | Wheat plant response rating (wheat; [12]) | Blackgrass plant response rating (blackgrass; 125 g ai/ha) | Corn plant response rating (corn; [12]) | Oat, Wild plant response rating (wild oat; [12]) | Surinam Grass plant response rating (Surinam grass; [12])
70: Rice plant response rating (rice [2]) | Plant response rating, Foxtail, Giant (giant foxtail; [17]) | Sedge, Umbrella plant response rating [4] | Plant response rating, Sedge, Umbrella [5, 16] | Plant response rating, Barnyardgrass (barnyardgrass [9]; [17])
100: Plant response rating, Pigweed (pigweed; [17])
35: Sedge, Umbrella plant response rating [5, 14]
20: Wheat plant response rating (wheat; [13]) | Crabgrass, Large plant response rating (large crabgrass; [13]) | Blackgrass plant response rating (blackgrass; 500 g ai/ha) | Corn plant response rating (corn; [13]) | Oat, Wild plant response rating (wild oat; [13]) | Surinam Grass plant response rating (Surinam grass; [13]) | Cocklebur plant response rating (cocklebur; 500 g ai/ha, visual rating)
90: Plant response rating, Morningglory (morningglory; [17]) | Pigweed plant response rating (pigweed; [13]) | Ducksalad plant response rating (ducksalad [10])
55: Sedge, Umbrella plant response rating [5, 15]
50: Plant response rating, Crabgrass, Large (large crabgrass; [17])
0: Lambsquarters plant response rating (0 to 100 scale) (lambsquarters; [11]) | Barnyardgrass plant response rating (barnyardgrass [1]; 62 g ai/ha, scale 0 to 100 (0 no effect, 100 complete control)) | Barnyardgrass plant response rating (barnyardgrass [1]; [14]) | Barnyardgrass plant response rating (barnyardgrass [1]; [15]) | Plant response rating, Barnyardgrass (barnyardgrass [1]; [16]) | Foxtail, Giant plant response rating (0 to 100 scale) (giant foxtail; [11]) | Foxtail, Giant plant response rating (giant foxtail; [12]) | Foxtail, Giant plant response rating (giant foxtail; [13]) | Crabgrass, Large plant response rating (0 to 100 scale) (large crabgrass; [11]) | Crabgrass, Large plant response rating (large crabgrass; [12]) | Sedge, Umbrella plant response rating ([5]; 62 g ai/ha, scale 0 to 100) | Velvetleaf plant response rating (0 to 100 scale) (velvetleaf; [11]) | Plant response rating, Velvetleaf (velvetleaf; [17]) | Velvetleaf plant response rating (velvetleaf; [12]) | Velvetleaf plant response rating (velvetleaf; [13]) | Rice plant response rating (0 to 100 scale) (rice [6]; 125 g ai/ha) | Plant response rating, Rice (rice [6]; 500 g ai/ha, visual rating) | Morningglory plant response rating (0 to 100 scale) (morningglory; [11]) | Morningglory plant response rating (morningglory; [12]) | Morningglory plant response rating (morningglory; [13]) | Rice plant response rating (rice [7]; 62 g ai/ha, scale 0 to 100) | Rice plant response rating (rice [7]; [14]) | Rice plant response rating (rice [7]; [15]) | Plant response rating, Rice (rice [7]; [16]) | Corn plant response rating (0 to 100 scale) (corn; [11]) | Plant response rating, Corn (corn; [17]) | Ducksalad plant response rating (ducksalad [8]; 62 g ai/ha, scale 0 to 100) | Surinam Grass plant response rating (0 to 100 scale) (Surinam grass; [11]) | Barnyardgrass plant response rating (0 to 100 scale) (barnyardgrass [9]; [11]) | Barnyardgrass plant response rating (barnyardgrass [9]; 125 g ai/ha, visual rating) | Barnyardgrass plant response rating (barnyardgrass [9]; 500 g ai/ha, visual rating) | Pigweed plant response rating (0 to 100 scale) (pigweed; [11]) | Cocklebur plant response rating (0 to 100 scale) (cocklebur; [11]) | Plant response rating, Cocklebur (cocklebur; [17]) | Cocklebur plant response rating (cocklebur; 125 g ai/ha, visual rating)
60: Ducksalad plant response rating (ducksalad [8]; [14])
75: Plant response rating, Ducksalad (ducksalad [8]; [16])
30: Lambsquarters plant response rating (lambsquarters; [13]) | Barnyardgrass plant response rating (barnyardgrass [3]) | Plant response rating, Surinam Grass (Surinam grass; [17]) | Pigweed plant response rating (pigweed; [12])
65: Ducksalad plant response rating (ducksalad [8]; [15])
